US20080227655A1, “Assessment of effect of an agent on a human biological condition using rodent gene expression panels” (priority 2006, published 2008)
Values joined by “and” are separate entries in the source; they are usually repeats but may differ in a detail not shown here. Equal values may be shown once.

System: custom murine 40-gene Precision Profile for Rheumatoid Arthritis, whole blood
Test: Collagen Induced Arthritis (CIA) model, whole blood gene expression by QPCR, vehicle or dexamethasone treatment
Assay type: in vivo, male DBA/1 mice
Method: Whole blood gene expression changes were evaluated in vehicle control and drug-treated murine subjects across two murine models of arthritis according to the following arthritis models:
KRN Transgenic Mouse (K/B×N): K/B×N serum from transgenic mouse used to induce arthritis in female BALB/c mice (n=54). Collagen Induced Arthritis (CIA): Bovine type II collagen used to induce arthritis in male DBA/1 mice (n=54).
In addition, naïve, untreated animal groups at baseline and terminal day were included to control for potential age-related changes in gene expression over the extended study periods. Animal groups, time-points, and treatment schedules are summarized in Tables 20A and 20B, respectively.
Whole blood samples from animals were collected by retro-orbital bleed at selected time-points in accordance with the arthritis study schemas described in […], and transferred into sample collection tubes containing a 1.5× lysis solution and RPMI. Samples were processed into total RNA and cDNA. […] It was anticipated from these murine models would provide a better understanding of the relevant molecular response of arthritis induction and their potential correlation to the human disease condition.
Normal murine subject reference values (represented as normalized Ct or ΔCt values) were established for male DBA/1 mice (n=6 for the CIA study arm) and female BALB/c mice (n=6 for the KRN study arm). In both arms of the study, gene expression response of normal (naïve, non-immunized and untreated) murine subjects were evaluated in groups of 6 each at day 0 and day 60 for the CIA study arm, and at day 0 and day 21 for the KRN study arm (see Tables 20A and 20B).
Gene expression responses for this arthritis-induced murine model were evaluated for untreated mice at day 24 and vehicle-treated mice at days 33, 42, and 60 to characterize disease progression.

[1] = CIA Day 42 Treated, group Average
[2] = CIA Day 42 Treated, group Average, whole blood
[3] = CIA Day 42 Treated, individual mice
[4] = CIA Day 42 Treated, individual mice, whole blood
[5] = CIA Day 60 Treated, group Average
[6] = CIA Day 60 Treated, group Average, whole blood
[7] = CIA Day 60 Treated, individual mice
[8] = CIA Day 60 Treated, individual mice, whole blood

## C[C@@H]1C[C@H]2[C@@H]3CCC4=CC(=O)C=C[C@]4(C)[C@@]3(F)[C@@H](O)C[C@]2(C)[C@@]1(O)C(=O)CO [Dexamethasone]
[1]
  CD19_M Normalized CT Value (Delta CT), Average: 17.41
  CD32_M Normalized CT Value (Delta CT), Average: 19.18
  CD86_M Normalized CT Value (Delta CT), Average: 22.86
  CSPG2_M Normalized CT Value (Delta CT), Average: 18.40
  F3_M Normalized CT Value (Delta CT), Average: 24.19
  HMOX1—M Normalized CT Value (Delta CT), Average: 17.42
  HSPA1A—M Normalized CT Value (Delta CT), Average: 22.06
  ICAM1—M Normalized CT Value (Delta CT), Average: 19.40
  IFI16_M Normalized CT Value (Delta CT), Average: 18.56
  IL1A_M Normalized CT Value (Delta CT), Average: 24.26
  IL1B_M Normalized CT Value (Delta CT), Average: 14.10
  IL10_M Normalized CT Value (Delta CT), Average: 25.70
[2]
  Normalized CT (Delta CT) IL1RAP_M: 18.00
  Normalized CT (Delta CT) IL1RN—M: 17.54
  Normalized CT (Delta CT) IL6_M: 24.59
  Normalized CT (Delta CT) JUN_M: 20.13
  Normalized CT (Delta CT) MEF2C—M: 19.65
  Normalized CT (Delta CT) NFKB1—M: 17.40
  Normalized CT (Delta CT) PADI4—M: 17.97
  Normalized CT (Delta CT) PLA2G7—M: 14.89
[3]
  ABCA1_M Normalized CT Value (Delta CT): 19.25 and 19.03 and 20.65 and 19.18 and 18.65 and 19.31
  APAF1_M Normalized CT Value (Delta CT): 20.34 and 19.23 and 20.02 and 18.89 and 19.10 and 20.01
  ARG2_M Normalized CT Value (Delta CT): 18.59 and 17.70 and 18.13 and 17.87 and 17.07 and 18.04
  CASP1_M Normalized CT Value (Delta CT): 19.07 and 17.95 and 20.08 and 18.16 and 18.00 and 18.03
  CASP3_M Normalized CT Value (Delta CT): 18.26 and 18.13 and 18.40 and 18.45 and 17.48 and 17.70
  CCR3_M Normalized CT Value (Delta CT): 19.92 and 18.94 and 19.77 and 19.05 and 19.94
  CD8A_M Normalized CT Value (Delta CT): 19.05 and 19.19 and 19.47 (2×) and 19.54 and 21.24
  CD14_M Normalized CT Value (Delta CT): 18.22 and 17.59 and 18.17 and 17.46 and 16.46 and 17.49
  CD19_M Normalized CT Value (Delta CT): 17.83 and 18.59 and 17.22
  CD32_M Normalized CT Value (Delta CT): 19.54 and 18.75 and 20.05 and 19.32 and 18.31 and 19.12
  CD86_M Normalized CT Value (Delta CT): 22.76 and 21.99 and 24.40 and 22.29 and 22.95 and 22.75
  CSPG2_M Normalized CT Value (Delta CT): 17.53 and 18.70 and 18.64 and 18.36 and 19.59 and 17.59
  F3_M Normalized CT Value (Delta CT): 21.92 and 24.08 and 25.50 and 24.56 and 23.94 and 25.11
  HMOX1—M Normalized CT Value (Delta CT): 15.87 and 17.25 and 18.49 and 17.66 and 17.84 and 17.40
  HSPA1A—M Normalized CT Value (Delta CT): 21.34 and 22.12 and 22.63 and 20.82 and 23.83 and 21.63
  ICAM1—M Normalized CT Value (Delta CT): 18.58 and 19.08 and 19.89 and 19.37 and 20.27 and 19.24
  IFI16_M Normalized CT Value (Delta CT): 17.87 and 17.97 and 18.60 and 18.06 and 20.80 and 18.04
  IL1A_M Normalized CT Value (Delta CT): 24.26
  IL1B_M Normalized CT Value (Delta CT): 13.49 and 14.12 and 14.22 and 14.25 and 14.38 and 14.15
  IL10_M Normalized CT Value (Delta CT): 25.44 (2×) and 25.71 and 25.64 and 25.84 and 26.13
[4]
  Normalized CT (Delta CT) IL1RAP_M: 17.46 and 17.94 and 18.31 and 18.38 and 17.99 and 17.91
  Normalized CT (Delta CT) IL1RN—M: 16.89 and 17.57 and 17.94 and 17.76 and 17.56 and 17.53
  Normalized CT (Delta CT) IL6_M: 24.11 and 25.01 and 23.38 and 25.34 and 25.09
  Normalized CT (Delta CT) JUN_M: 19.54 and 19.51 and 20.43 and 19.81 and 21.67 and 19.83
  Normalized CT (Delta CT) MEF2C—M: 19.72 and 19.12 and 19.89 and 19.47 and 20.04 and 19.64
  Normalized CT (Delta CT) NFKB1—M: 17.25 and 16.83 and 17.27 and 16.97 and 18.81 and 17.26
  Normalized CT (Delta CT) PADI4—M: 17.57 and 18.02 and 17.98 (2×) and 18.35 and 17.91
  Normalized CT (Delta CT) PLA2G7—M: 14.60 and 14.83 and 15.02 and 14.96 and 15.09 and 14.82
[5]
  ABCA1_M Normalized CT Value (Delta CT), Average: 18.01
  APAF1_M Normalized CT Value (Delta CT), Average: 18.94
  ARG2_M Normalized CT Value (Delta CT), Average: 17.62
  CASP1_M Normalized CT Value (Delta CT), Average: 18.09
  CASP3_M Normalized CT Value (Delta CT), Average: 17.44
  CCR3_M Normalized CT Value (Delta CT), Average: 20.02
  CD14_M Normalized CT Value (Delta CT), Average: 17.08
  CD32_M Normalized CT Value (Delta CT), Average: 18.46
  CD86_M Normalized CT Value (Delta CT), Average: 22.22
[6]
  Normalized CT (Delta CT) IL1RAP_M: 18.09
  Normalized CT (Delta CT) IL1RN—M: 17.39
  Normalized CT (Delta CT) IL6_M: 24.58
  Normalized CT (Delta CT) JUN_M: 19.44
  Normalized CT (Delta CT) MEF2C—M: 19.42
  Normalized CT (Delta CT) NFKB1—M: 16.65
  Normalized CT (Delta CT) PADI4—M: 18.36
  Normalized CT (Delta CT) PLA2G7—M: 14.66
[7]
  ABCA1_M Normalized CT Value (Delta CT): 18.15 and 17.43 and 18.02 and 18.03 and 18.50 and 17.95
  APAF1_M Normalized CT Value (Delta CT): 18.90 and 18.40 and 19.28 and 18.97 and 19.36 and 18.75
  ARG2_M Normalized CT Value (Delta CT): 17.69 and 17.21 and 17.86 and 17.73 and 18.48 and 16.78
  CASP1_M Normalized CT Value (Delta CT): 17.78 and 17.53 and 18.19 and 18.75 and 18.66 and 17.61
  CASP3_M Normalized CT Value (Delta CT): 17.72 and 17.06 and 17.22 and 17.97 and 17.46 and 17.18
  CCR3_M Normalized CT Value (Delta CT): 20.33 and 18.57 and 20.17 and 20.39 and 21.29 and 19.38
  CD14_M Normalized CT Value (Delta CT): 17.31 and 16.84 (2×) and 17.24 and 17.32 and 16.92
  CD32_M Normalized CT Value (Delta CT): 18.41 and 17.86 and 18.35 and 18.90 and 18.54 and 18.72
  CD86_M Normalized CT Value (Delta CT): 22.26 and 21.38 and 22.48 and 22.41 and 22.40 and 22.37
[8]
  Normalized CT (Delta CT) IL1RAP_M: 18.11 and 18.37 and 18.06 and 18.23 and 18.26 and 17.51
  Normalized CT (Delta CT) IL1RN—M: 17.45 and 17.37 and 17.66 and 17.72 and 17.62 and 16.51
  Normalized CT (Delta CT) IL6_M: 25.14 and 24.12 and 24.79 and 25.54 and 25.20 and 22.67
  Normalized CT (Delta CT) JUN_M: 19.63 and 19.39 and 19.44 (2×) and 19.07 and 19.67
  Normalized CT (Delta CT) MEF2C—M: 19.42 and 19.06 and 19.35 and 19.73 and 19.55 and 19.41
  Normalized CT (Delta CT) NFKB1—M: 16.72 and 16.41 and 16.30 and 16.95 and 16.80 and 16.73
  Normalized CT (Delta CT) PADI4—M: 18.90 and 18.59 and 18.29 and 18.10 and 18.41 and 17.84
  Normalized CT (Delta CT) PLA2G7—M: 14.78 and 14.34 and 14.76 and 14.77 and 14.96 and 14.35
  Normalized CT (Delta CT), column 9, gene sub-head of this block not shown: 24.31
